Experiments:
[1] = target: T1, human TRPV4 (hTRPV4/CHO cells) (Homo sapiens, UniProt Q9HBA0); assay: Test Example 4: TRPV4 inhibitory activity (Ki value), 4α-PDD stimulation, Fluo-3 calcium fluorescence (FDSS 3000); format: cell-based; conditions: Test Example 4, 4α-PDD stimulation, read-out: Test 4 Ki
T1 construct: expressed in transfected cells; host or cells: CHO-K1
How it was run: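 hTRPV4/CHO-K1 cells loaded with 5 μmol/L Fluo-3 in HBSS/HEPES pH 7.5 with probenecid; compound (10 μmol/L to 0.5 nmol/L final, 10 points) added before 4α-PDD, fluorescence read 8 min at Ex 480/Em 540 nm. Max−Min signal normalised to 10 μM Ruthenium Red (100%) and no compound (0%); IC50 converted to Ki using 4α-PDD EC50.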

[2] = Test Example 8: Solubility test; format: physicochemical; conditions: fassgf or other biorelevant, kinetic from dmso stock; 1% DMSO addition, artificial intestinal juice pH 6.8, 16 hours at 25° C.
Experimental: The solubility of a compound of the present invention was determined under 1% DMSO addition conditions. A 10 mmol/L solution of the compound was prepared with DMSO, and 6 μL of the solution of the compound of the present invention was added to 594 μL of an artificial intestinal juice (water and 118 mL of 0.2 mol/L NaOH reagent were added to 250 mL of 0.2 mol/L potassium dihydrogen phosphate reagent to reach 1000 mL) with a pH of 6.8. The mixture was left standing for 16 hours at 25° C., and the mixture was vacuum-filtered. The filtrate was two-fold diluted with methanol/water=1/1 (V/V), and the compound concentration in the filtrate was measured with HPLC or LC/MS/MS by the absolute calibration method.

[3] = Test Example 9: Metabolism stability test; format: in vitro ADME; conditions: human liver microsomes 0.5 mg protein/mL, 30 minutes at 37° C., NADPH, compound concentration 0.5 μmol/L
Experimental: Metabolism Stability Test
Using a commercially available pooled human hepatic microsomes, a compound of the present invention was reacted for a constant time, a remaining rate was calculated by comparing a reacted sample and an unreacted sample, thereby, a degree of metabolism in liver was assessed.
A reaction was performed (oxidative reaction) at 37° C. for 0 minute or 30 minutes in the presence of 1 mmol/L NADPH in 0.2 mL of a buffer (50 mmol/L Tris-HCl pH 7.4, 150 mmol/L potassium chloride, 10 mmol/L magnesium chloride) containing 0.5 mg protein/mL of human liver microsomes. After the reaction, 50 μL of the reaction mixture was added to 100 μL of a methanol/acetonitrile=1/1 (v/v), mixed and centrifuged at 3000 rpm for 15 minutes. The compound of the present invention in the supernatant was quantified by LC/MS/MS, and a remaining amount of the compound of the present invention after the reaction was calculated, letting a compound amount at 0 minute reaction time to be 100%. Hydrolysis reaction was performed in the absence of NADPH and glucuronidation reaction was in the presence of 5 mmol/L UDP-glucuronic acid in place of NADPH, followed by similar operations.
(Results) Compound concentration: 0.5 μmol/L

T1 sequence (Q9HBA0 whole entry): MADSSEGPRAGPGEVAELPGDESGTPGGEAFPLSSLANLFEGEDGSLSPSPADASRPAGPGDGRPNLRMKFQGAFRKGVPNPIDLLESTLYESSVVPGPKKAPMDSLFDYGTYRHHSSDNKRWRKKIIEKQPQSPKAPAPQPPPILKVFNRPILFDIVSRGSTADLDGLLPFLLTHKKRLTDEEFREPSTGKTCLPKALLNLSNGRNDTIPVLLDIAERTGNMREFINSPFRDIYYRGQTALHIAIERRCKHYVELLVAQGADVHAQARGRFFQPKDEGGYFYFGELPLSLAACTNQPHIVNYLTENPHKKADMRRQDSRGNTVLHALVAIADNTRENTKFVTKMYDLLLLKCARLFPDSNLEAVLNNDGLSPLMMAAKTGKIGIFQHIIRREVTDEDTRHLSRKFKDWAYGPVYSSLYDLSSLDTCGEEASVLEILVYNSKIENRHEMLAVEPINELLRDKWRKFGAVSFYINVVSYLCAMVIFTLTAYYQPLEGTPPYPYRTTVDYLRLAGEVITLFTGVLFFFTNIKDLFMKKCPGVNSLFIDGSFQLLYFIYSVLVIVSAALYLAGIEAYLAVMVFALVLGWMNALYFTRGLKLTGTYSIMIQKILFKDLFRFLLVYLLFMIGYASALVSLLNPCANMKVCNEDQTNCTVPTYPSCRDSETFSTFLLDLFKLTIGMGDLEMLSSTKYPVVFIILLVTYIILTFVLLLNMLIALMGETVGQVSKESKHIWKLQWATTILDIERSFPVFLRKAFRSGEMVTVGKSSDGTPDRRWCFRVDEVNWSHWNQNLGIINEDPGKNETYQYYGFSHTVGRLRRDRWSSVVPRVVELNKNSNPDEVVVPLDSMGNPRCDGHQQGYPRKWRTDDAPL

Compound	Ki [1] [nM]	solubility at 16 h [2] [µM]	Metabolism stability: remaining amount of the compound after the reaction [3] [%]
Cc1nc(C)c(-c2csc(NC(=O)Cc3ccc(S(C)(=O)=O)cc3)n2)s1 [Compound I-17]	100 to 1000	> 50	92.2
Cc1nc(C)c(-c2csc(NC(=O)C3CCC(F)(F)C3)n2)s1 (stereo not drawn) [Compound I-18]	< 100	> 50	86.4
